Data taken from the supplement of paper PMC8671470.

How the values were obtained:
Settings in all cases: 72 h
NOMO-1 [1] = system: NOMO-1
Summary of the method: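 Each of fifteen myeloid leukaemia cell lines was seeded in RPMI 1640 at a density titrated to its linear growth range. The cells were incubated for 72 h at 37 °C and 5% CO2 with compounds at five tenfold doses from 1 to 10,000 nM, in duplicate. After ATP luminescence was normalised to vehicle and to a positive control at 10 µM, four-parameter log-logistic curves were fitted. These curves gave the IC50.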

MOLM-13 = test: cell viability (% survival relative to DMSO control, bortezomib = 0%); higher = less cytotoxic
Summary of the method: (§1)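 After 72 h at 37 °C with 5% CO2, cell viability in 384-well plates was measured by CellTiter-Glo luminescence. The plates held compounds pre-printed at 1, 10, 100, 1000 or 10000 nM in duplicate, and cells from 10 AML and 5 CML lines seeded at densities titrated to linear growth. Percent survival is the duplicate mean, normalised to vehicle as 100% and a 10 µM positive control as 0%.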

BV-173 = test: as above
Summary of the method: as §1

K-562 = test: as above
Summary of the method: as §1

NOMO-1 [2] = test: as above
Summary of the method: as §1

MV4-11 = test: as above
Summary of the method: as §1

Mono-Mac-6 = test: as above
Summary of the method: as §1

SHI-1 = test: as above
Summary of the method: as §1

LAMA-84 = test: as above
Summary of the method: as §1

KCL-22 = test: as above
Summary of the method: as §1

ML-2 = test: as above
Summary of the method: as §1

KU-812 = test: as above
Summary of the method: as §1

HEL = test: as above
Summary of the method: as §1

THP-1 = test: as above
Summary of the method: as §1

KG-1 = test: as above
Summary of the method: as §1

HL-60 [3] = test: as above
Summary of the method: as §1

HL-60 [4] = test: cell viability (% survival relative to DMSO control); higher = less cytotoxic
Summary of the method: (§2)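 A rescreen of the full library used HL-60 cells in RPMI 1640 with 10% FBS on 384-well plates, run in duplicate at five tenfold concentrations (1–10,000 nM). Each screen included DMSO or 100 nM of one of three metabolic inhibitors and ran 72 h at 37 °C, 5% CO2. CellTiter-Glo viability was scaled between DMSO and 10 μM proteasome-inhibitor wells. Any area under the curve comes from four-parameter log-logistic fits with drc and PharmacoGx.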

HL-60 [5] = test: area under dose-response curve (viability, 1 nM-10 uM) (fraction (0-1)); higher = more sensitive
Summary of the method: as §2

OC[C@H]1N[C@@H](c2c[nH]c3c(O)ncnc23)[C@H](O)[C@@H]1O [Forodesine]
Settings	IC50 (cell viability) [µM]
NOMO-1 [1]	> 10

Settings	area under dose-response curve, co-treatment: AZD3965 100 nM	area under dose-response curve, co-treatment: DMSO vehicle	area under dose-response curve, co-treatment: GSK2194069 100 nM	area under dose-response curve, co-treatment: pictilisib 100 nM	cell viability, 1 nM [%]	cell viability, 10 nM [%]	cell viability, 100 nM [%]	cell viability, 1000 nM [%]	cell viability, 10000 nM [%]
BV-173	–	–	–	–	95.1	83.9	103	91.1	89.1
HEL	–	–	–	–	103	95.9	102	92.6	88.6
HL-60 [3]	–	–	–	–	92.1	98	95.8	102	90.2
HL-60 [5]	< 0.0301	< 0.0301	< 0.0301	< 0.0301	–	–	–	–	–
K-562	–	–	–	–	94.9	94.4	88.3	97.5	99.3
KCL-22	–	–	–	–	102	91.8	100	99.2	91.3
KG-1	–	–	–	–	107	94.2	95.4	85.1	82.8
KU-812	–	–	–	–	89.9	96	96.8	96.4	75.4
LAMA-84	–	–	–	–	96.4	90.1	94.7	93	88.7
ML-2	–	–	–	–	92.7	85	95.3	92.9	85.7
MOLM-13	–	–	–	–	81.3	89.2	93.1	103	84.1
MV4-11	–	–	–	–	97.1	94.5	91.7	92.3	90.3
Mono-Mac-6	–	–	–	–	109	87.5	107	108	88.5
NOMO-1 [2]	–	–	–	–	97.9	92.3	97.3	96.9	87.4
SHI-1	–	–	–	–	101	95.5	94.3	108	98.9
THP-1	–	–	–	–	100	93.9	90.7	83.1	74.3

cell viability [%], HL-60 [4]
Settings	0.001 µM	0.01 µM	0.1 µM	1 µM	10 µM
co-treatment: AZD3965 100 nM	97.5	105	101	101	94
co-treatment: DMSO vehicle	101	105	105	99.2	100.1
co-treatment: GSK2194069 100 nM	100	103	96.2	98.2	95.9
co-treatment: pictilisib 100 nM	79.7	93.3	99.5	95.3	103.8

CCCCCCCNC=O [N-Heptyl-Formamide]
Settings	IC50 (cell viability) [µM]
NOMO-1 [1]	> 10

Settings	area under dose-response curve, co-treatment: AZD3965 100 nM	area under dose-response curve, co-treatment: DMSO vehicle	area under dose-response curve, co-treatment: GSK2194069 100 nM	area under dose-response curve, co-treatment: pictilisib 100 nM	cell viability, 1 nM [%]	cell viability, 10 nM [%]	cell viability, 100 nM [%]	cell viability, 1000 nM [%]	cell viability, 10000 nM [%]
BV-173	–	–	–	–	112	98.3	90.4	123	95.5
HEL	–	–	–	–	109	97.9	80.9	112	92.1
HL-60 [3]	–	–	–	–	108	115	95.3	143	91.7
HL-60 [5]	< 0.0301	< 0.0301	< 0.0301	< 0.0301	–	–	–	–	–
K-562	–	–	–	–	116	108	99	122	96.3
KCL-22	–	–	–	–	101	109	90.1	113	98.8
KG-1	–	–	–	–	99.6	110	86.4	108	95.5
KU-812	–	–	–	–	108	97.3	98.9	107	91.7
LAMA-84	–	–	–	–	101	99.3	104	112	98.1
ML-2	–	–	–	–	121	106	88.8	117	90.9
MOLM-13	–	–	–	–	113	98.3	89.9	108	90.3
MV4-11	–	–	–	–	106	105	93.7	105	94.4
Mono-Mac-6	–	–	–	–	110	97.3	101	114	96.8
NOMO-1 [2]	–	–	–	–	110	96.7	100	113	93
SHI-1	–	–	–	–	109	104	101	114	97.1
THP-1	–	–	–	–	110	97.1	97.1	104	96.7

cell viability [%], HL-60 [4]
Settings	0.001 µM	0.01 µM	0.1 µM	1 µM	10 µM
co-treatment: AZD3965 100 nM	104.63	106	98	95	97.3
co-treatment: DMSO vehicle	101.3	78.3	98.6	97.7	101
co-treatment: GSK2194069 100 nM	99.7	103	99.6	97.7	94
co-treatment: pictilisib 100 nM	99.8	108	78.6	102	100

N=C(N)c1ccc(N=NNc2ccc(C(=N)N)cc2)cc1 [Diminazene]
Settings	IC50 (cell viability) [µM]
NOMO-1 [1]	> 10

Settings	area under dose-response curve, co-treatment: AZD3965 100 nM	area under dose-response curve, co-treatment: DMSO vehicle	area under dose-response curve, co-treatment: GSK2194069 100 nM	area under dose-response curve, co-treatment: pictilisib 100 nM	cell viability, 1 nM [%]	cell viability, 10 nM [%]	cell viability, 100 nM [%]	cell viability, 1000 nM [%]	cell viability, 10000 nM [%]
BV-173	–	–	–	–	104	103	106	106	103
HEL	–	–	–	–	103	109	111	93.8	111
HL-60 [3]	–	–	–	–	83	102	123	116	96.6
HL-60 [5]	< 0.0301	< 0.0301	< 0.0301	< 0.0301	–	–	–	–	–
K-562	–	–	–	–	102	99.3	119	94.5	96.7
KCL-22	–	–	–	–	102	96.6	114	84.4	72.7
KG-1	–	–	–	–	115	109	114	97.7	88.9
KU-812	–	–	–	–	89.2	100	95.5	101	85.7
LAMA-84	–	–	–	–	105	103	108	105	98.3
ML-2	–	–	–	–	104	98.7	100	106	93.7
MOLM-13	–	–	–	–	94.4	98.1	101	73.7	93.9
MV4-11	–	–	–	–	113	100	94.6	92.2	77.9
Mono-Mac-6	–	–	–	–	97	100	107	105	98.2
NOMO-1 [2]	–	–	–	–	106	99	104	102	86.9
SHI-1	–	–	–	–	100	102	116	95.3	95.8
THP-1	–	–	–	–	105	99.7	107	103	86.3

cell viability [%], HL-60 [4]
Settings	0.001 µM	0.01 µM	0.1 µM	1 µM	10 µM
co-treatment: AZD3965 100 nM	94.9	98.5	106	93.1	101
co-treatment: DMSO vehicle	101.5	100.7	99.712	101.22	100.7
co-treatment: GSK2194069 100 nM	99.7	100	105	100.3	101.5
co-treatment: pictilisib 100 nM	83.5	98	107.8	97.2	104
